Results published in patent US20240010635A1, “NOVEL INDIRUBIN DERIVATIVES HAVING HETEROBICYCLIC MOIETIES AND THE USE THEREOF” (priority 2022, published 2024).
Where a chain is given by its changes, count along the chain named.

Columns and labels:
Assay type in all cases: biochemical
FLT3 WT = biological target: T1, FLT3 WT (Homo sapiens, UniProt P36888); experiment: ADP-Glo kinase assay, FLT3 WT; details: recombinant FLT3, ADP-Glo, 120 min room temperature; read-out: Enzyme activity (IC50, nM) FLT3 WT
T1 construct: Recombinant proteins containing the FLT3 and FLT3 (D835Y) domains were purchased from Promega; purchased Promega V4064
T1 sequence (P36888 610-943 limits assumed): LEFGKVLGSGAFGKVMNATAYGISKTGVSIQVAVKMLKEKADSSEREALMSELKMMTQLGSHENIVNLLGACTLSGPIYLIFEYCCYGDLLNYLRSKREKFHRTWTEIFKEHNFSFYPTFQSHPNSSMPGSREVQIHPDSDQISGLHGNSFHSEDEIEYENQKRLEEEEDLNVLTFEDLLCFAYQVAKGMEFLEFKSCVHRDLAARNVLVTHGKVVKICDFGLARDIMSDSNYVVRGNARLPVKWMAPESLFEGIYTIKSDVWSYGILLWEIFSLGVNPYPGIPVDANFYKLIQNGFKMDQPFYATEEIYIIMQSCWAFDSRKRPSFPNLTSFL
Description: (§1) FLT3 activity inhibition was measured by ADP-Glo kinase assay (Promega, cat #V9101). ADP-Glo kinase analysis method is an emission ADP detect method which measures kinase activity by quantification of ADP amount produced during kinase reaction and provides uniform high-throughput screening method.
(§2) Analysis performed in two steps. First, after kinase reaction, ADP-Glo™ reagent of equal volume was added to finish kinase reaction, and then the rest ATP was exhausted. Second, Kinase Detection Reagent was added to convert ADP to ATP and newly synthesized ATP was measured by luciferase/luciferin reaction at the same time. Generated light was measured by using luminometer. The measured luminescence amount can be applied to the ATP→ADP standard conversion curve to confirm the correlation with the ADP concentration.
(§3) Recombinant proteins containing the FLT3 and FLT3 (D835Y) domains were purchased from Promega (cat #V4064, cat #V4514), respectively. According to the manufacturer's instructions, optimal enzyme, ATP, and substrate concentration were established using the ADP-Glo™ Kinase Assay (Promega, USA). Kinase reaction buffer 5× (200 mM Tris-HCl, pH 7.5, 100 mM MgCl2, 0.5 mg/ml BSA) was diluted and used, and the diluted compound of the present invention (5×, 1 μl), FLT3 enzyme or FLT3/D835Y enzyme (2.5×, 2 μl) and substrate/ATP mixture (2.5×, 2 μl), were mixed sequentially and reacted at room temperature for 120 minutes. Then, ADP-Glo™ Reagent (5 μl) was added and reacted for 40 min at room temperature. Finally, after adding a reagent for detection (Kinase Detection Reagent, 10 μl), reacting at room temperature for 30 min, and then phosphorylation of substrate peptide was measured by measuring luciferase signal (Integration time 0.5-1 second) using SpectraMax ID5 reader (Molecular Devices LLC., San Jose, CA, USA). IC50 was calculated by nonlinear regression using Prism version 5.01 (GrapghPad).

FLT3 D835Y = biological target: T2, FLT3 D835Y (Homo sapiens, UniProt P36888, D835Y); experiment: ADP-Glo kinase assay, FLT3 D835Y; details: recombinant FLT3 (D835Y), 120 min room temperature, read-out: Enzyme activity (IC50, nM) FLT3 D835Y
T2 construct: Recombinant proteins containing the FLT3 and FLT3 (D835Y) domains were purchased from Promega; purchased Promega V4514
T2 sequence (P36888 610-943 D835Y limits assumed): T1 sequence (P36888 610-943 limits assumed) with D226Y
Description: as §1, §2, §3

RET WT = biological target: T3, RET WT (Homo sapiens, UniProt P07949); experiment: ADP-Glo kinase assay, RET WT; details: recombinant RET wt, 120 min room temperature, read-out: Enzyme activity (IC50, nM) RET WT
T3 construct: Recombinant proteins containing RET wt, RET (M918T) and RET (V804L) domains were purchased from Promega; purchased Promega V8061
T3 sequence (P07949 724-1016 limits assumed): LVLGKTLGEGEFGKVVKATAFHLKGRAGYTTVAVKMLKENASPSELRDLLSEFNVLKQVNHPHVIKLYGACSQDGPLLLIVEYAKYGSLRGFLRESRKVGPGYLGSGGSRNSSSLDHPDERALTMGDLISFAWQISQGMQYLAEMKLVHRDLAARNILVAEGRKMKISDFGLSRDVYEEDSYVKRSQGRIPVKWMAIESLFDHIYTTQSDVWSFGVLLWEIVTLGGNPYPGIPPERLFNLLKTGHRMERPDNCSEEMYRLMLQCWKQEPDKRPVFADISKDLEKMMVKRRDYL
Description: as §2
(§4) Recombinant proteins containing RET wt, RET (M918T) and RET (V804L) domains were purchased from Promega (cat #V8061, cat #VA7274, cat #V4473), respectively. According to the manufacturer's instructions, optimal enzyme, ATP, and substrate concentration were established using ADP-Glo™ Kinase Assay (Promega, USA). […] Then, ADP-Glo™ Reagent (5 μl) was added and reacted at room temperature for further 40 min. Lastly, Kinase Detection Reagent (10 μl) was added and reacted for 30 min more at room temperature, and then phosphorylation of substrate peptide was measured by measuring luciferase signal (Integration time 0.5-1 second) using SpectraMax ID5 reader (Molecular Devices LLC., San Jose, CA, USA). IC50 was calculated by nonlinear regression using Prism version 5.01 (GrapghPad).

RET V804L = biological target: T4, RET V804L (Homo sapiens, UniProt P07949, V804L); experiment: ADP-Glo kinase assay, RET V804L; details: recombinant RET (V804L), 120 min room temperature, read-out: Enzyme activity (IC50, nM) RET V804L
T4 construct: Recombinant proteins containing RET wt, RET (M918T) and RET (V804L) domains were purchased from Promega; purchased Promega V4473
T4 sequence (P07949 724-1016 V804L limits assumed): T3 sequence (P07949 724-1016 limits assumed) with V81L
Description: as §2, §4

SMILES	IC50 (FLT3 WT) [nM]	IC50 (FLT3 D835Y) [nM]	IC50 (RET WT) [nM]	IC50 (RET V804L) [nM]
O=C1Nc2ccccc2/C1=C1/Nc2ccccc2/C1=N\OCC(=O)N1CC2(CNC2)C1 [Example 15, (2Z,3E)-3-((2-oxo-2-(2,6-diazaspiro[3.3]heptan-2-yl)ethoxy)imino)-[2,3′-biindolinylidene]-2′-one]	3.41	0.798	0.664	0.37
O=C1Nc2ccc(Br)cc2/C1=C1/Nc2ccccc2/C1=N\OCCN1C[C@H]2C[C@@H]1CN2 [Example 13, (2Z,3E)-3-((2-((1R,4R)-2,5-diazabicyclo[2.2.1]heptan-2-yl)ethoxy)imino)-5′-bromo-[2,3′-biindolinylidene]-2′-one]	4.72	0.686	1.31	0.376
O=C(CO/N=C1/C(=C2/C(=O)Nc3ccc(F)cc32)Nc2ccccc21)N[C@H]1[C@@H]2CNC[C@@H]21 [Example 19, N-((1R,5S,6s)-3-azabicyclo[3.1.0]hexan-6-yl)-2-(((E)-((Z)-5′-fluoro-2′-oxo-[2,3′-biindolinylidene]-3-ylidene)amino)oxy)acetamide]	3.13	0.511	1.05	0.419
O=C1Nc2ccccc2/C1=C1/Nc2ccccc2/C1=N\OCC(=O)N1C[C@H]2C[C@@H]1CN2 [Example 17, (2Z,3E)-3-((2-((1R,4R)-2,5-diazabicyclo[2.2.1]heptan-2-yl)-2-oxoethoxy)imino)-[2,3′-biindolinylidene]-2′-one]	4.24	0.552	1.53	0.904
O=C1Nc2ccc(F)cc2/C1=C1/Nc2ccccc2/C1=N\OCCN1CC2(CNC2)C1 [Example 6, (2Z,3E)-3-((2-(2,6-diazaspiro[3.3]heptan-2-yl)ethoxy)imino)-5′-fluoro-[2,3′-biindolinylidene]-2′-one]	2.44	0.488	0.668	0.797
O=C(CO/N=C1/C(=C2/C(=O)Nc3ccccc32)Nc2ccccc21)N[C@H]1[C@@H]2CNC[C@@H]21 [Example 16, N-((1R,5S,6s)-3-azabicyclo[3.1.0]hexan-6-yl)-2-(((E)-((Z)-2′-oxo-[2,3′-biindolinylidene]-3-ylidene)amino)oxy)acetamide]	3.13	0.661	0.873	0.472
O=C1Nc2ccccc2/C1=C1/Nc2ccccc2/C1=N\OCCN1CC2(CNC2)C1 [Example 1, (2Z,3E)-3-((2-(2,6-diazaspiro[3.3]heptan-2-yl)ethoxy)imino)-[2,3′-biindolinylidene]-2′-one]	1.42	0.329	1.09	1.3
O=C1Nc2ccccc2/C1=C1/Nc2ccccc2/C1=N\OCCN1C[C@@H]2C[C@H]1CN2 [Example 5, (2Z,3E)-3-((2-((1S,4S)-2,5-diazabicyclo[2.2.1]heptan-2-yl)ethoxy)imino)-[2,3′-biindolinylidene]-2′-one]	1.57	0.135	1.85	0.851
O=C1Nc2ccc(F)cc2/C1=C1/Nc2ccccc2/C1=N\OCCN[C@H]1[C@@H]2CNC[C@@H]21 [Example 7, (2Z,3E)-3-((2-((1R,5S,6s)-3-azabicyclo[3.1.0]hexan-6-ylamino)ethoxy)imino)-5′-fluoro-[2,3′-biindolinylidene]-2′-one]	1.47	0.37	1.03	0.742
O=C1Nc2ccc(Cl)cc2/C1=C1/Nc2ccccc2/C1=N\OCCN1C[C@H]2C[C@@H]1CN2 [Example 11, (2Z,3E)-3-((2-((1R,4R)-2,5-diazabicyclo[2.2.1]heptan-2-yl)ethoxy)imino)-5′-chloro-[2,3′-biindolinylidene]-2′-one]	4.57	0.553	1.72	1.02
O=C1Nc2ccc(F)cc2/C1=C1/Nc2ccccc2/C1=N\OCC(=O)N1CC2(CNC2)C1 [Example 18, (2Z,3E)-5′-fluoro-3-((2-oxo-2-(2,6-diazaspiro[3.3]heptan-2-yl)ethoxy)imino)-[2,3′-biindolinylidene]-2′-one]	2.15	0.306	1.12	0.657
N[C@@H]1[C@H]2CN(CCO/N=C3/C(=C4/C(=O)Nc5ccc(F)cc54)Nc4ccccc43)C[C@@H]12 [Example 8, (2Z,3E)-3-((2-((1R,5S,6s)-6-amino-3-azabicyclo[3.1.0]hexan-3-yl)ethoxy)imino)-5′-fluoro-[2,3′-biindolinylidene]-2′-one]	1.35	0.303	0.441	0.54
O=C1Nc2ccccc2/C1=C1/Nc2ccccc2/C1=N\OCCN[C@H]1[C@@H]2CNC[C@@H]21 [Example 2, (2Z,3E)-3-((2-((1R,5S,6s)-3-azabicyclo[3.1.0]hexan-6-ylamino)ethoxy)imino)-[2,3′-biindolinylidene]-2′-one]	2.49	0.524	0.964	0.553
O=C1Nc2ccc(F)cc2/C1=C1/Nc2ccccc2/C1=N\OCCN1C[C@H]2C[C@@H]1CN2 [Example 9, (2Z,3E)-3-((2-((1R,4R)-2,5-diazabicyclo[2.2.1]heptan-2-yl)ethoxy)imino)-5′-fluoro-[2,3′-biindolinylidene]-2′-one]	3.87	0.667	0.49	0.785
